Assay results taken from patent publication US12458630B2, “Combination therapy for cancer” (The Regents of the University of California, priority 2020, dated 2025).
“Also recorded” adds a separate entry of the source.

Tests used:
[1] = tested on: 1444 primary human PDAC cells; test: TMR-DEX macropinosome uptake assay; assay type: cell-based; conditions: IKKα^Δ 1444 cells, 75 μM EIPA
Experimental: (§1) Cell imaging. Immunostaining was performed as described^44. Cells were cultured on coverslips and fixed in 4% PFA for 10 min at room temperature. After washing twice in PBS, cells were incubated in PBS containing 10% FBS to block nonspecific sites of antibody adsorption. The cells were then incubated with the appropriate primary antibodies (diluted 1:100) and secondary antibodies (diluted 1:500) in PBS containing 10% FBS with or without 0.1% saponin. For cell macropinosome visualization, 24 hrs after seeding, the cells were serum starved for 18 hrs. Macropinosomes were marked using a high-molecular-mass (70 KD) TMR-Dextran (Invitrogen)-uptake assay, wherein TMR-DEX was added to serum-free medium at a final concentration of 1 mg/ml for 30 min at 37° C. At the end of the incubation period, the cells were rinsed five times in cold PBS and immediately fixed in 4% PFA. For tissue macropinosome visualization^45, fresh pancreata were cut into pieces with an approximate 5-mm cuboidal shape. […]
(§2) Quantification and statistics. To quantify the number of LC3 puncta, a total of 30 cells were recorded and analyzed using the LAS X measurement program on the TCS SPE Leica. Macropinosomes were quantified by using the ‘Analyze Particles’ feature in ImageJ (National Institutes of Health). […]

MIA PaCa-2 cells = test: LC3 puncta / LC3-LAMP1 immunofluorescence; assay type: cell-based, human; conditions: MIA PaCa-2 cells +/- MRT68921
Experimental: as §1, §2

SMILES | macropinocytosis (TMR-DEX labeling) [1] | autophagosome (LC3) puncta per cell (MIA PaCa-2 cells)
CCN(c1nc(N)c(C(=O)N=C(N)N)nc1Cl)C(C)C [EIPA, 5-(N-ethyl-N-isopropyl) amiloride] | inhibited; also recorded: suppressed | 
CN1CCc2cc(Nc3ncc(C4CC4)c(NCCCNC(=O)C4CCC4)n3)ccc2C1 [MRT68921] |  | less autophagosomes; also recorded: reduced autophagosomes; also recorded: significantly abolished
